# Assay results taken from patent publication US20250186437A1, “CARBOLINE COMPOUNDS AND USE THEREOF” (PTC Therapeutics, Inc., priority 2021, published 2025).
# Test system: MOLM-13 cells
# Assay: MOLM-13 Cell Proliferation Assay (indicator of DHODH inhibition)
# Format: cell-based
# Conditions: Homo sapiens, 72 Hours of culture, CellTiter-Glo, no uridine
# How it was run: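 Low-passage MOLM-13 cells (10^4/well) in RPMI 1640 + 10% FBS exposed to compound (0.5% DMSO final) for 72 h at 37 °C, 5% CO2. Viability read by CellTiter-Glo luminescence; growth reflects de novo pyrimidine synthesis dependent on DHODH.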
row,IC50 [nM],SMILES
1,29.1,"Cc1ccnc(N2CCc3c([nH]c4ccc(Cl)c(F)c34)C2c2ccc(F)cc2)n1 (centres unmarked) [Compound 90, 6-chloro-5-fluoro-1-(4-fluorophenyl)-2-(4-methylpyrimidin-2-yl)-2,3,4,9-tetrahydro-1H-pyrido[3,4-b]indole]"
2,3.2,"C[C@H]1CN(c2ncc([C@H]3c4[nH]c5ccc(Cl)cc5c4CCN3c3nc(C(F)(F)F)cc(C(F)(F)F)n3)cn2)CCN1 [Compound 517, (1S)-2-[4,6-bis(trifluoromethyl)pyrimidin-2-yl]-6-chloro-1-{2-[(3S)-3-methylpiperazin-1-yl]pyrimidin-5-yl}-2,3,4,9-tetrahydro-1H-pyrido[3,4-b]indole]"
3,3.2,"Cc1cc(C)nc(N2CCc3c([nH]c4ccc(Cl)c(F)c34)C2c2ccc(/C=C/CCO)cc2)n1 (centres unmarked) [Compound 242, (3E)-4-{4-[6-chloro-2-(4,6-dimethylpyrimidin-2-yl)-5-fluoro-2,3,4,9-tetrahydro-1H-pyrido[3,4-b]indol-1-yl]phenyl}but-3-en-1-ol]"
4,0.5,"Cc1ccc(C2c3[nH]c4cc(F)c(Cl)cc4c3CCN2c2nc(C(F)(F)F)cc(C(F)(F)F)n2)c(F)c1F (centres unmarked) [Compound 155, 2-[4,6-bis(trifluoromethyl)pyrimidin-2-yl]-6-chloro-1-(2,3-difluoro-4-methylphenyl)-7-fluoro-2,3,4,9-tetrahydro-1H-pyrido[3,4-b]indole]"
5,5.2,"FC(F)(F)c1nc(N2CCOCC2)nc(N2CCc3c([nH]c4ccc(Cl)cc34)C2c2ccc(N3CCOCC3)nc2)n1 (centres unmarked) [Compound 428, 6-chloro-1-[6-(morpholin-4-yl)pyridin-3-yl]-2-[4-(morpholin-4-yl)-6-(trifluoromethyl)-1,3,5-triazin-2-yl]-2,3,4,9-tetrahydro-1H-pyrido[3,4-b]indole]"
6,6.7,"Cc1nc(N2CCc3c([nH]c4ccc(Cl)c(F)c34)C2c2ccc(Cl)cc2)ncc1F (centres unmarked) [Compound 70, 6-chloro-1-(4-chlorophenyl)-5-fluoro-2-(5-fluoro-4-methylpyrimidin-2-yl)-2,3,4,9-tetrahydro-1H-pyrido[3,4-b]indole]"
7,3.6,"Cc1cc(C)nc(N2CCc3c([nH]c4cc(F)c(Cl)cc34)C2c2ccc(CCCCO)cc2)n1 (centres unmarked) [Compound 245, 4-{4-[6-chloro-2-(4,6-dimethylpyrimidin-2-yl)-7-fluoro-2,3,4,9-tetrahydro-1H-pyrido[3,4-b]indol-1-yl]phenyl}butan-1-ol]"
8,3.1,"CN(C)c1nc(N2CCc3c([nH]c4ccc(Cl)cc34)[C@@H]2c2ccc(N3CCOCC3)nc2)nc(C(F)(F)F)n1 [Compound 443, 4-{(1S)-6-chloro-1-[6-(morpholin-4-yl)pyridin-3-yl]-1,3,4,9-tetrahydro-2H-pyrido[3,4-b]indol-2-yl}-N,N-dimethyl-6-(trifluoromethyl)-1,3,5-triazin-2-amine]"
9,1.1,"OCC/C=C/c1ccc(C2c3[nH]c4cc(F)c(Cl)cc4c3CCN2c2nccc(C(F)(F)F)n2)cc1 (centres unmarked) [Compound 167, (3E)-4-(4-{6-chloro-7-fluoro-2-[4-(trifluoromethyl)pyrimidin-2-yl]-2,3,4,9-tetrahydro-1H-pyrido[3,4-b]indol-1-yl}phenyl)but-3-en-1-ol]"
10,5.7,"FC(F)(F)c1ccnc(N2CCc3c([nH]c4ccc(Cl)cc34)C2c2cnc(N3CC4(COC4)C3)nc2)n1 (centres unmarked) [Compound 391, 6-chloro-1-[2-(2-oxa-6-azaspiro[3.3]heptan-6-yl)pyrimidin-5-yl]-2-[4-(trifluoromethyl)pyrimidin-2-yl]-2,3,4,9-tetrahydro-1H-pyrido[3,4-b]indole]"
11,3.4,"Cc1nc(N2CCc3c([nH]c4ccc(Cl)c(F)c34)C2c2ccc(/C=C/CCO)cc2)ncc1F (centres unmarked) [Compound 241, (3E)-4-{4-[6-chloro-5-fluoro-2-(5-fluoro-4-methylpyrimidin-2-yl)-2,3,4,9-tetrahydro-1H-pyrido[3,4-b]indol-1-yl]phenyl}but-3-en-1-ol]"
12,19.1,"Fc1cnc(N2CCc3c([nH]c4ccc(Cl)c(F)c34)C2c2ccc(C(F)(F)F)cc2)nc1 (centres unmarked) [Compound 67, 6-chloro-5-fluoro-2-(5-fluoropyrimidin-2-yl)-1-[4-(trifluoromethyl)phenyl]-2,3,4,9-tetrahydro-1H-pyrido[3,4-b]indole]"
13,2.7,"Fc1cc(Cl)ccc1C1c2[nH]c3ccc(Cl)cc3c2CCN1c1nccc(C(F)(F)F)n1 (centres unmarked) [Compound 267, 6-chloro-1-(4-chloro-2-fluorophenyl)-2-[4-(trifluoromethyl)pyrimidin-2-yl]-2,3,4,9-tetrahydro-1H-pyrido[3,4-b]indole]"
14,2.2,"Cc1ccc([C@H]2c3[nH]c4ccc(Cl)cc4c3CCN2c2ncc(F)c(C#N)n2)c(F)c1F [Compound 385, 2-[(1S)-6-chloro-1-(2,3-difluoro-4-methylphenyl)-1,3,4,9-tetrahydro-2H-pyrido[3,4-b]indol-2-yl]-5-fluoropyrimidine-4-carbonitrile]"
15,65,"Cc1ccc([C@H]2c3[nH]c4ccc(Cl)cc4c3CCN2c2nc(N)nc(C(F)(F)F)n2)cc1 [Compound 426, 4-[(1S)-6-chloro-1-(4-methylphenyl)-1,3,4,9-tetrahydro-2H-pyrido[3,4-b]indol-2-yl]-6-(trifluoromethyl)-1,3,5-triazin-2-amine]"
16,2.1,"CSc1nc(N2CCc3c([nH]c4ccc(Cl)cc34)[C@@H]2c2cnc(N3CCN(C)CC3)nc2)nc(C(F)(F)F)n1 [Compound 474, (1S)-6-chloro-1-[2-(4-methylpiperazin-1-yl)pyrimidin-5-yl]-2-[4-(methylsulfanyl)-6-(trifluoromethyl)-1,3,5-triazin-2-yl]-2,3,4,9-tetrahydro-1H-pyrido[3,4-b]indole]"
17,12.1,"Cc1ccc(C2c3[nH]c4cc(F)c(Cl)cc4c3CCN2c2ncc(F)c(C)n2)cc1 (centres unmarked) [Compound 123, 6-chloro-7-fluoro-2-(5-fluoro-4-methylpyrimidin-2-yl)-1-(4-methylphenyl)-2,3,4,9-tetrahydro-1H-pyrido[3,4-b]indole]"
18,89.6,"Fc1cnc(N2CCc3c([nH]c4cc(F)c(Cl)cc34)C2c2ccc(F)c(F)c2)nc1 (centres unmarked) [Compound 37, 6-chloro-1-(3,4-difluorophenyl)-7-fluoro-2-(5-fluoropyrimidin-2-yl)-2,3,4,9-tetrahydro-1H-pyrido[3,4-b]indole]"
19,0.2,"Cc1nc(N2CCc3c([nH]c4ccc(Cl)cc34)[C@@H]2c2ccc(C)c(F)c2F)nc(C(F)(F)F)n1 [Compound 464, (1S)-6-chloro-1-(2,3-difluoro-4-methylphenyl)-2-[4-methyl-6-(trifluoromethyl)-1,3,5-triazin-2-yl]-2,3,4,9-tetrahydro-1H-pyrido[3,4-b]indole]"
20,3.4,"Cc1ccc([C@H]2c3[nH]c4ccc(Cl)cc4c3CCN2c2nc(N3CCOCC3)nc(C(F)(F)F)n2)cc1 [Compound 442, (1S)-6-chloro-1-(4-methylphenyl)-2-[4-(morpholin-4-yl)-6-(trifluoromethyl)-1,3,5-triazin-2-yl]-2,3,4,9-tetrahydro-1H-pyrido[3,4-b]indole]"
21,4.7,"Cc1ccnc(N2CCc3c([nH]c4ccc(Cl)c(F)c34)C2c2ccc(/C=C/CCO)cc2)n1 (centres unmarked) [Compound 237, (3E)-4-{4-[6-chloro-5-fluoro-2-(4-methylpyrimidin-2-yl)-2,3,4,9-tetrahydro-1H-pyrido[3,4-b]indol-1-yl]phenyl}but-3-en-1-ol]"
22,177,"Fc1c(Cl)ccc2[nH]c3c(c12)CCN(c1nccc(C(F)(F)F)n1)[C@@H]3c1ccc(Cl)cc1 [Compound 181, (1R)-6-chloro-1-(4-chlorophenyl)-5-fluoro-2-[4-(trifluoromethyl)pyrimidin-2-yl]-2,3,4,9-tetrahydro-1H-pyrido[3,4-b]indole]"
23,2.4,"Cc1ccc([C@H]2c3[nH]c4ccc(Cl)cc4c3CCN2c2nc(C#N)cc(C#N)n2)cc1 [Compound 397, 2-[(1S)-6-chloro-1-(4-methylphenyl)-1,3,4,9-tetrahydro-2H-pyrido[3,4-b]indol-2-yl]pyrimidine-4,6-dicarbonitrile]"
24,3,"FC(F)(F)c1ccnc(N2CCc3c([nH]c4ccc(Cl)cc34)C2c2ccc(Cl)cc2)n1 (centres unmarked) [Compound 349, 6-chloro-1-(4-chlorophenyl)-2-[4-(trifluoromethyl)pyrimidin-2-yl]-2,3,4,9-tetrahydro-1H-pyrido[3,4-b]indole]"
25,24.6,"N#Cc1ccnc(N2CCc3c([nH]c4cc(F)c(Cl)cc34)C2c2ccc(C(F)(F)F)cc2)n1 (centres unmarked) [Compound 121, 2-{6-chloro-7-fluoro-1-[4-(trifluoromethyl)phenyl]-1,3,4,9-tetrahydro-2H-pyrido[3,4-b]indol-2-yl}pyrimidine-4-carbonitrile]"
26,5.4,"Fc1cc(N2CCOCC2)ccc1C1c2[nH]c3ccc(Cl)cc3c2CCN1c1nccc(C(F)(F)F)n1 (centres unmarked) [Compound 277, 6-chloro-1-[2-fluoro-4-(morpholin-4-yl)phenyl]-2-[4-(trifluoromethyl)pyrimidin-2-yl]-2,3,4,9-tetrahydro-1H-pyrido[3,4-b]indole]"
27,46.9,"OCc1ccc(C2c3[nH]c4cc(F)c(Cl)cc4c3CCN2c2ncc(F)cn2)cc1 (centres unmarked) [Compound 78, {4-[6-chloro-7-fluoro-2-(5-fluoropyrimidin-2-yl)-2,3,4,9-tetrahydro-1H-pyrido[3,4-b]indol-1-yl]phenyl}methanol]"
28,66.1,"CN1CCN(c2ncc([C@H]3c4[nH]c5ccc(Cl)cc5c4CCN3c3nc(N4CCN(C)CC4)nc(C(F)(F)F)n3)cn2)CC1 [Compound 479, (1S)-6-chloro-1-[2-(4-methylpiperazin-1-yl)pyrimidin-5-yl]-2-[4-(4-methylpiperazin-1-yl)-6-(trifluoromethyl)-1,3,5-triazin-2-yl]-2,3,4,9-tetrahydro-1H-pyrido[3,4-b]indole]"
29,1.1,"Cc1ccc([C@H]2c3[nH]c4ccc(Cl)cc4c3CCN2c2ncc(Br)cn2)c(F)c1F [Compound 463, (1S)-2-(5-bromopyrimidin-2-yl)-6-chloro-1-(2,3-difluoro-4-methylphenyl)-2,3,4,9-tetrahydro-1H-pyrido[3,4-b]indole]"
